Results published in patent publication US20240150398A1, “PEPTIDES AND CONJUGATES THEREOF AS ACE-2 AND S1 SUBUNIT MIMICS AGAINST SEVERE ACUTE RESPIRATORY SYNDROME CORONAVIRUS-2 (SARS-COV2) INFECTION” (priority 2020, published 2024).

Target: interaction between ACE-2 receptor and spike S1 protein of SARS-CoV2 (Severe acute respiratory syndrome coronavirus 2, UniProt P0DTC2)

Sequence | interaction between ACE-2 receptor and spike S1 protein in presence of peptide
DKFNHEAEDLFY [Peptide 4] | blocked
QTFDKNHEDLYLQAKQLK [Peptide 3] | blocked
